Values quoted from earlier work in US8168224B2, “Sodium alginate microsphere vascular embolus containing water-soluble drug and preparation and application thereof” (Beijing Shengyiyao Science & Technology Development Co., …, priority 2007, dated 2012).

Legend:
primary liver cancer = settings: 20 mg/d for 5 consecutive days
[1] = system: human ovary cancer strain 3AO; settings: 3AO cells in vitro, compared with cisplatin (cDDP)
[2] = system: human liver cancer cell strain HepG2; settings: combination with TNF
[3] = system: human ovary cancer cell strain SKOV3; settings: As2O3 within normal clinical dosage range; radiation in routine graded dosages
[4] = system: rabbit Vx2 hepatic transplantation carcinoma; settings: hepatic artery catheter perfusion; dose dependent
K562 and K562/ADM = settings: dosage-time effect
acute non-APL (ANPL) = settings: versus Ara-C, Homoharringtonine, VCR and DNR

Substance: Arsenic trioxide [As2O3]
- side effects (primary liver cancer; 4 courses, local pump administration): No explicit side effects
- PR (lesions shrank by 50% plus, no new lesions) (primary liver cancer; 17 patients unsuitable for surgery, after 4 therapeutic courses): 35.2%
- overall effectiveness rate (primary liver cancer; 17 patients, after 4 therapeutic courses): 41.1%
- angiogenesis (angiogenesis in CAM): inhibit angiogenesis
- growth inhibition, apoptosis induction and S phase block compared with cDDP [1]: more effective in inhibiting growth, inducing apoptosis and blocking S phase of 3AO
- combination effect on inducing apoptosis [2]: synergistic
- radiation enhancement [3]: enhance effect of the radiation therapy
- inhibition of rabbit Vx2 hepatic transplantation carcinoma [4]: significantly effective in treating tumors
- expression of Bcl-2 protein (K562 and K562/ADM): inhibit expression of Bcl-2 protein of K562 and K562/ADM
- growth of HUVECs (HUVECs): inhibit growth of HUVECs
- cross drug resistance (acute non-APL (ANPL)): free from cross drug resistance with Ara-C, Homoharringtonine and VCR, but partly has cross drug resistance with DNR
